The record followed here is patent US6897316B2, “Substituted 2-phenyl-4-quinolone-3-carboxylic acid compounds and their use as antitumor agents” (China Medical University, priority 2003, dated 2005).

The test system of the test is melanoma (SK-MEL-2) cell line. Kind of test: Activity against HTCL replication, SK-MEL-2. The following applies: mean ED50. It counts as cell-based, human. How it is done: Compounds were assayed for in vitro cytotoxicity in a panel of human tumor cell lines at the School of Pharmacy, University of North Carolina at Chapel Hill, according to procedures described previously [Lee, K. H., Lin, Y. M., Wu, T. S., Zhang, D. C., Yamagishi, T., Hayashi, T., Hall, I. H., Chang, J. J., Wu, R. Y., Yang, T. H. The cytotoxic principles of Prunella vulgaris, Psychotria serpens, and Hyptis capitata: Ursolic acid and related derivatives. Planta Med. 1988, 54, 308-11; Boyd, M. R. Status of the National Cancer Institute preclinical antitumor drug discovery screen: implications for selection of new agents for clinical trial. Devita, V. T., Jr. Hellman, S., Rosenberg, S. A., Eds, J. B. Cancer: Principles and Practice of Oncology Update, 1989, 3: pp1-12, Lippincoft: Philadephia; Monks, A., Scudiero, D., Skehan, P., Shoemaker, R., Paull, K., Vistica, D., Hose, C., Langley, J., Cronise, P., Vaigro-Wolff, A., Gray-Goodrich, M., Campbell, H., Mayo, J., Boyd, M. Feasibility of a high-flux anticancer drug screen using a diverse panel of cultured human tumor cell lines. J. Natl. Cancer Inst. 1991, 83, 757-66.] […]

Converted amounts (≈) assume the structure as drawn.

Turning to `COc1ccc2[nH]c(-c3cccc(F)c3)c(C(=O)O)c(=O)c2c1` [IX-8, 3′-Fluoro-6-methoxy-2-phenyl-4-quinolone-3-carboxylic acid], the “ED50 SK-MEL-2” value came to 0.16 µg/mL (≈ 0.511 µM).
